In US20260232642A1, “RNA-BINDING MOLECULES WITH A SMALL CORE SCAFFOLD (R-SCORE) AND USES THEREOF” (Max-Planck-Gesellschaft zur Förderung der Wissenschaften …, priority 2022, published 2026):
Entries after “also recorded” stand apart in the source; their conditions may differ. Read-outs that look alike come from different tables or passages of the source.

Columns and labels:
Ramos cells = assay: MTT assay, Ramos; assay type: cell-based, human; details: 72 h, Burkitt lymphoma cell line, read-out: Cell lines IC50 [μM] Ramos
Procedure: (§1) MAD-MB-231, MCF-7 and JAR cells were cultured in Dulbecco's modified Eagle's (DMEM) medium supplemented with 10% Fetal Bovine Serum (FBS), 100 u/mL penicillin-streptomycin. Jurkat, Molt-4 and Ramos cells were cultured in Roswell Park Memorial Institute (RPMI) 1640 medium with 10% Fetal Bovine Serum (FBS), 100 u/mL penicillin-streptomycin. All cell lines grown in an incubator with humidified 5% CO2 at 37° C.
(§2) Jurkat, Molt-4 and Ramos cells were collected and seeded into 96-well plates at a density of 8000-10000 per well and treated with compounds. MCF-7, MDA-MB-231 and JAR cells were collected and seeded into 96-well plates at a density of 2000-3000 per well and cultured overnight to adherent before treat with compounds. After exposed to increasing concentrations of compounds for 72 h, the cells in each well were mixed with 20 μL of 5 mg/ml MTT (3-(4,5-dimethylthiazol-2-yl)-2,5-diphenyltetrazolium bromide) for 2 h, then add 50 μL of 20% SDS/0.01 M HCl incubated overnight, and detected the absorbance at a wavelength of 570 nm.
(§3) Inhibition rate was calculated using the equation: […]
(§4) The IC50 values were calculated by using GraphPad Prism 9 software fitting to a dose-response inhibition equation.

Jurkat cells = assay: MTT assay, Jurkat; assay type: cell-based, human; details: 72 h, acute leukemia cell line, read-out: Cell lines IC50 [μM] Jurkat
Procedure: as §1, §2, §3, §4

MDA-MB-231 cells [1] = assay: Colony formation assay; assay type: cell-based, human; details: for antiproliferation activity against MDA-MB-231 cell line: 6 days, crystal violet, vs DMSO; for antiproliferation activity compared to other selected compounds: MDA-MB-231, ranking among A10, A11, B2, B5, B8, B9; for inhibition of MDA-MB-231 cell proliferation at 10 μM: concentration of 10 μM
Procedure: as §1
MDA-MB-231 cells were collected and seeded into 24-well plates with the density of 1000 cells per well and cultured overnight. The medium was exchanged and supplemented with different compounds and concentrations every three days. 6 days later, cells were washed with PBS and fixed by 4% paraformaldehyde solution. After 15 min fix, the paraformaldehyde solution was washed with PBS and was then stained with 0.1% (w/v) crystal violet. After 15 min, the cells were washed and photographed.

Molt-4 cells = assay: MTT assay, Molt-4; assay type: cell-based, human; details: acute leukemia cell line, read-out: Cell lines IC50 [μM] Molt-4
Procedure: as §1, §2, §3, §4

MDA-MB-231 cells [2] = assay: MTT assay, MDA-MB-231; assay type: cell-based, human; details: breast cancer cell line, read-out: Cell lines IC50 [μM] MDA-MB-231
Procedure: as §1, §2, §3, §4

[3] = tested on: precursor microRNA-17 hairpin (pre-miR-17 hp); assay: Differential scanning fluorimetry (DSF), pre-miR-17 hairpin; assay type: binding; details: 60 uM compound, 1 μM hairpin in PBS, Tm of compound minus Tm of DMSO control
Procedure: (§5) To measure the binding between compounds and precursor microRNA-21 hairpin (pre-miR-21 hp) or precursor microRNA-17 hairpin (pre-miR-17 hp), DSF was performed as previously described with modification (ACS Chem. Biol. 2017, 12, 2, 435-443). Precursor microRNA hairpin was dissolved in PBS and annealed by briefly heating to 95° C. for 3 min and slowly cooling to rt. Assay was performed in duplicates using white qPCR 8-strips (VWR) with a total volume of 10 μL in PBS. The total reaction consisted of 1 μM precursor microRNA hairpin, 1% test compound (DMSO dilution) and 2×SYBR GreenII (Thermo Fisher Scientific). Compounds were incubated with precursor microRNA hairpin at for 10 min at rt, then SYBR GreenII was added to each well, mixed and incubated 10 min at rt. The strips were spined and loaded to the RT-PCR detection system (BIO-RAD CFX Connect), the fluorescence intensity was obtained every 1° C. for 30 s in the range of 20° C. to 80° C.
(§6) The melting temperature (Tm) was determined by the maximum of the negative of the first derivative of the fluorescence vs temperature melting curves. The ΔTm was calculated by the Tm value of compound subtract the Tm value of the DMSO control.

[4] = tested on: precursor microRNA-21 hairpin (pre-miR-21 hp); assay: Differential scanning fluorimetry (DSF), pre-miR-21 hairpin; assay type: binding; details: 60 uM compound, 1 μM hairpin in PBS, Tm of compound minus Tm of DMSO control
Procedure: as §5, §6

JAR cells = assay: MTT assay, JAR; assay type: cell-based, human; details: 72 h, choriocarcinoma cell line, read-out: Cell lines IC50 [μM] JAR
Procedure: as §1, §2, §3, §4

MCF-7 cells = assay: MTT assay, MCF-7; assay type: cell-based, human; details: breast cancer cell line, read-out: Cell lines IC50 [μM] MCF-7
Procedure: as §1, §2, §3, §4

SMILES | IC50 (Ramos cells) [µM] | IC50 (Jurkat cells) [µM] | antiproliferation activity against MDA-MB-231 cell line (MDA-MB-231 cells [1]) | antiproliferation activity compared to other selected compounds (MDA-MB-231 cells [1]) | inhibition of MDA-MB-231 cell proliferation at 10 μM (MDA-MB-231 cells [1]) | IC50 (Molt-4 cells; 72 h) [µM] | IC50 (MDA-MB-231 cells [2]; 72 h) [µM] | ΔTm (pre-miR-17 hp) @60 uM [° C.] [3] [°C] | ΔTm (pre-miR-21 hp) @60 uM [° C.] [4] [°C] | IC50 (JAR cells) [µM] | IC50 (MCF-7 cells; 72 h) [µM] | IC50 (MDA-MB-231 cells [2]; Homo sapiens, MDA-MB-231, 72 h) [µM] | IC50 (Ramos cells; Homo sapiens, Ramos) [µM] | IC50 (JAR cells; Homo sapiens) [µM] | IC50 (Jurkat cells; Homo sapiens, Jurkat) [µM] | IC50 (Molt-4 cells; Homo sapiens, MOLT-4, 72 h) [µM] | IC50 (MCF-7 cells; Homo sapiens, MCF7, 72 h) [µM]
CNc1nc(N2CC(c3ccc(-c4c(C)noc4C)cc3)C2C#N)nc2ccccc12 (centres unmarked) [Compound B2, 3-(4-(3,5-dimethylisoxazol-4-yl)phenyl)-1-(4-(methylamino)quinazolin-2-yl) azetidine-2-carbonitrile] | 3.03 | 4.49 | can inhibit MDA-MB-231 cells proliferation; also recorded: exhibited antiproliferation activity against MDA-MB-231 cell line in a dose-dependent manner | better antiproliferation ability; also recorded: most potent antiproliferation activity | fully inhibited | 4.67 | – | – | – | – | – | – | – | – | – | – | –
CNc1nc(N2CC(c3ccc(-c4ccc5nc[nH]c5c4)cc3)C2C#N)nc2ccccc12 (centres unmarked) [Compound B9, 3-(4-(1H-benzo[d]imidazol-6-yl)phenyl)-1-(4-(methylamino)quinazolin-2-yl) azetidine-2-carbonitrile] | 5.54 | 3.17 | can inhibit MDA-MB-231 cells proliferation; also recorded: exhibited antiproliferation activity against MDA-MB-231 cell line in a dose-dependent manner | – | – | 4.14 | 4.12 | −1 | −1 | 1.82 | 1.78 | – | – | – | – | – | –
C=CCN1C(C#N)C(c2ccc(-c3ccc(C(F)(F)F)cc3)cc2)C1Cn1cc(-c2ccccn2)nn1 (centres unmarked) [Compound A10, 1-allyl-4-((4-(pyridin-2-yl)-1H-1,2,3-triazol-1-yl)methyl)-3-(4′-(trifluoromethyl)-[1,1′-biphenyl]-4-yl) azetidine-2-carbonitrile] | – | – | can inhibit MDA-MB-231 cells proliferation; also recorded: exhibited antiproliferation activity against MDA-MB-231 cell line in a dose-dependent manner | – | – | – | – | 0 | 0 | – | – | > 20 | 8.87 | > 20 | 7.51 | 1.6 | > 20
CNc1nc(N2CC(c3ccc(-c4ccc(C(F)(F)F)cc4)cc3)C2C#N)nc2ccccc12 (centres unmarked) [Compound B5, 1-(4-(methylamino)quinazolin-2-yl)-3-(4′-(trifluoromethyl)-[1,1′-biphenyl]-4-yl) azetidine-2-carbonitrile] | – | – | can inhibit MDA-MB-231 cells proliferation; also recorded: exhibited antiproliferation activity against MDA-MB-231 cell line in a dose-dependent manner | most potent antiproliferation activity | fully inhibited | – | – | 0 | 0 | – | – | 6.95 | 2.8 | 1.44 | 5.9 | 8.42 | 5.61
